Entries after “also recorded” stand apart in the source; their conditions may differ.
Key:
Drosophila model of HD = assay: Aggregation of mHDx1 in a Drosophila model of HD (immunohistochemistry, Western blot); assay type: in vivo
Text: FIG. IB is an image of a Western blot (WB) of different batch pooled larvae examined for MHDx1 aggregation. FIG. 1C is a series of images depicting immunohistochemistry similar to FIG. 1A except that adult flies were used in FIG. 1C. FIG. 1D depicts a WB similar to FIG. 1B, except that adult flies were used in FIG. 1D. The Gal4 induction system with mHDx1 (120Q) downstream of UAS (upstream activation sequence) and the gal4 transactivator downstream of Drosophila neuronal-specific promoter Elav was used to induce the expression of mHDx1 in the nervous system of offspring. In FIG. 1C, the central brain region is shown.
Without being limited by theory, it is contemplated that intestinal microbiota contributes to the aggregation of mutant HTT in the enteric nervous stem (ENS). In a Drosophila model of HD (Barbaro et al., 2015), inducing the expression of a mutant HTT exon-1 fragment (mHDx1) in the nervous system promoted aggregation in the ENS of larvae in the vicinity of the gut (FIGS. 1A and 1B). The initial appearance of aggregates in the larval ENS is thus observed.
Accordingly, it is observed herein that treatment with an antibiotic in accordance with some embodiments herein decreases aggregates of mutant Huntingtin protein.

Rett mice [1] = assay: GI pathology and metabolic changes in Rett mice; assay type: in vivo
Description: In FIG. 14A, each point represents a mouse. N=6 each in FIG. 14C. […] N=6 for FIGS. 14E and 14F.
It was examined whether eliminating the intestinal microbiota of Rett mice alters GI pathology.

Rett mice [2] = assay: Staining of brain sections of Rett mice for astrocyte and microglial markers; assay type: in vivo
Text: FIG. 15A depicts staining with markers of activated astrocyte GFAP (center column) and GS (right column); Overlay of GFAP and GS is shown in left column. […] The Iba-1 and CD11 generally colocalized throughout the hippocampal region, but Iba-1 was expressed at higher levels in the vehicle-treated group (see, e.g, arrow), and lower levels in the rifaximin-treated group.
The finding can be re-confirmed and quantified for statistical analysis. Elevation of GFAP and GS is linked to astrocytes activation and inflammation. Astrocytes are recognized as therapeutic targets for neuroinflammation, neurodegeneration, and neuropsychiatric disorders. Subsets of gut microbes produce molecules, which reach the CNS, lower astrocytes activation, and subsequently reduce the production of inflammatory cytokines (Rothhamrner et al., 2016). Gut bacteria also greatly influence the development of microglia, which are the CNS immune cells (Erny et al., 2015).
For example, animals can be gavaged with known amounts of rifaximin to ensure equal delivery.

Rett mice [3] = assay: Behaviors of Rett mice (nest building, climbing, wire-mesh hanging, clasping); assay type: in vivo
Description: FIG. 58 is a graph depicting that rifaximin-treated mice make more attempts at climbing a wired-mesh cylinder within a 2 min time allowed. FIG. 5C is a graph depicting that testing muscle strength by wired mesh hanging assay. […] N=6. Scoring and procedures were as described in Southwell et al., 2009.
N=6. Scoring and procedures were as described in Southwell et al., 2009.
Nest building is indicative of rodents' well-being, daily activity, positive motivational state, and healthy brain functions (Jirkof, 2014).
Nest building is indicative of rodents' wellbeing, daily activity, positive motivational state, and healthy brain functions (Jirkof, 2014). […] This is consistent with the improved mobility in Rett mice observed herein. The data herein can be confirmed with additional behavioral tests, including rotarod, beam crossing, and open field. These studies can confirm benefits of rifaximin therapy on the CNS pathology and/or aberrant behaviors in Rett syndrome.
This is based on observations that male mice start displaying symptoms when they are ˜10 weeks old.
Hind limb clasping is a marker of disease progression in Rett syndrome and other diseases with motor defects. In this assay animals were suspended by the tail ˜30 cm above the tabletop for 1 min and recorded with a video camera. No clasping is scored as 0, periodic clasping and extension is scored as 1, and full hind limb clasping was scored with occasional extension is scored as 2. Severe clasping is scored as 3.

Rett mice [4] = assay: Neurogenesis in Rett mice (doublecortin and ki67 staining); assay type: in vivo
Text: FIGS. 18A-C are a series of graphs and images depicting effects of microbiota on neurogenesis in Rett mice in accordance with some embodiments herein. FIG. 18A is a series of images depicting doublecortin staining of bilateral hippocampus in vehicle-treated (top panels) and rifaximin-treated Rett mice (bottm panels). FIG. 18B is a graph showing quantification of doublecortin positive cells in the dentate gyrus of bilateral hippocampi (2 layers) from 4 vehicle-treated and 6 rifaximin-treated animals, FIG. 18C is a series of images showing ki67 positive cells (arrows) in the SVZ (subventricular zone) of vehicle (top) and rifaximin-treated Rett mice. Boxed areas highlight regions with dramatic changes (considerably more ki67-positive cells are observed in the rifaximin-treated mose). NeuN staining for neurons (NeuN) is observed as bright foci throughout.

Rett mice [5] = assay: Semi-quantitative PCR of gut bacteria in Rett mice; assay type: in vivo
Text: FIG. 7 is an image depicting the results of semi-quantitative PCR of Rett mice of some embodiments. […] Top panels are Eubacteria amplification used as a positive control.
FIG. 19 is an image showing the results of semi-quantitative PCR in WT and Rett mice in accordance with some embodiments herein.
Less is known about the role of Tenericutes in human health. In animals however, the presence of Tenericutes correlates with digestion of crude fiber (Niu et al., 2015).

Rett mice [6] = assay: Learning and memory of Rett mice (novel object recognition, Barnes Maze); assay type: in vivo; conditions: rifaximin-treated Rett mice; expected
Description: GF WT and Rett mice are also tested for these behaviors the results are compared with the rifaxitnin-treated cohorts.
We previously used this test in an environmental mouse model of autism (Hsiao et al., 2013). Rodents in general spend more time exploring a novel object than a familiar one. The ability to choose the novel object is indicative of learning and recognition memory. The novel object recognition task is conducted in an open field arena with two different kinds of objects. Both objects are generally consistent in height and volume, but are different in shape and appearance. During habituation, the animals are allowed to explore an empty arena. […] The time spent exploring each object and the discrimination index percentage are recorded. This test is used, among other experiments, to assess the cognitive ability of vehicle- and rifaximin-treated Rett mice as well as GF cohorts and quantify and compare the results.
In this test mice learn the position of a hole to escape the brightly lit open surface of the maze. […] Rett mice as well as GF cohorts and quantify and compare the results. For data acquisition the amount of time required for the animal to locate the goal box using visuo-spatial cues surrounding the maze periphery are measured. The number of errors the mice make are recorded to find the escape hole. […]

Rett mice [7] = assay: Whole body plethysmography in Rett mice; assay type: in vivo; conditions: predicted
Text: Whole body plethysmography are used to measure breathing irregularities in Rett mice. This phenotype is common in Rett patients (Lombardi et al., 2015). An accumulating body of literature supports the potential importance of vagus nerve in the regulation of breathing. We predict that intestinal dysbiosis in Rett impairs the vagus nerve activity and exacerbate the breathing abnormalities. […] The Buxco Fine Pointe Unrestrained Whole Body Plethysmograph system from Data Sciences International (DSI; St. Paul, Minn.) are used for these measurements.

[8] = tested on: Hepatic Encephalopathy (HE) patients; conditions: clinical studies; cited from earlier work
[9] = tested on: Parkinson's disease patients; conditions: pilot study; cited from earlier work
humans = conditions: cited from earlier work
human microbiota = conditions: cited from earlier work
[10] = Rett mice treated after weaning for 6 weeks
[11] = brain sections from the cortical regions, some of the treated Rett mice, compared to vehicle

## CO[C@H]1/C=C/O[C@@]2(C)Oc3c(C)c(O)c4c(O)c(c5c(nc6cc(C)ccn65)c4c3C2=O)NC(=O)/C(C)=C\C=C\[C@H](C)[C@H](O)[C@@H](C)[C@@H](O)[C@@H](C)[C@H](OC(C)=O)[C@@H]1C [rifaximin]
Drosophila model of HD; Drosophila HD larvae generated in the presence of rifaximin
  aggregation of mHDx1 in larvae: lowers the aggregation of mHDx1
Drosophila model of HD; adult HD flies
  aggregation of mHDx1 in the CNS of adult flies: reduces the aggregation of mHDx1
Rett mice [1]; Rett mice
  GI and metabolic symptoms of Rett mice: eliminated the GI and metabolic symptoms
  inflammatory appearance of the GI tract: reduces the inflammatory appearance of the GI tract
Rett mice [1]; [10]
  colon length: selectively elongates the colon
  intestinal obesity: prevents intestinal obesity
Rett mice [1]; female Rett mice
  accumulation of abdominal fat: prevented
  weight gain: prevented
Rett mice [2]; [11]
  staining for glial fibrillary acidic protein (GFAP): reduced staining
  staining for glutamine synthetase (GS): reduced staining
Rett mice [2]; brain sections of Rett mice, some of the treated animals
  numbers of microglia (microglial biomarkers): numbers were reduced
Rett mice [2]; hippocampal region of Rett mice, versus vehicle-treated group
  Iba-1 expression: lower levels
Rett mice [3]
  activity in the cage environment: more active
  hind limb clasping phenotype: significantly reduced clasping phenotype
  nest building: build better nests
  wire-mesh hanging assay (muscle strength): perform better; also recorded: enhanced muscle strength
Rett mice [3]; 2 min time allowed
  climbing a wire-meshed cylinder: perform better; also recorded: make more attempts to climb
Rett mice [4]; compared to vehicle, doublecortin staining
  hippocampal neurogenesis: enhanced
Rett mice [4]; compared to vehicle, hippocampus
  dendritic arborization: enhanced
Rett mice [4]; ki67
  proliferation of cells in the subventricular zone (SVZ): Enhanced proliferation
Rett mice [5]
  abundance of Bifidobacteria in the GI tract: did not increase
  abundance of the phylum Tenericutes: increased abundance
Rett mice [6]
  learning and memory: learning and memory are improved
Rett mice [7]
  breathing defects: ameliorate some of the breathing defects
[8]
  bacterial load: decreases bacterial load
  leaky gut: corrects leaky gut
  severity of aberrant behaviors (anxiety, irritability, depression, motor symptoms, cognitive impairment): reduces the severity of several aberrant behaviors
[9]
  motor functions: improved motor functions
humans
  safety and tolerability: safe and well tolerated
Human microbiota
  proliferation of probiotic species including Bifidobacteria: promotes the proliferation
